One data set addresses SARS-CoV-2 spike protein (Severe acute respiratory syndrome coronavirus 2, UniProt P0DTC2). Particulars: cited from earlier work.
The conditions of data set [1]: human, in vivo; cited from earlier work.
Data set [2] deals with SARS-CoV-2 (USA-WA1/2020). The format is cell-based. Particulars: Vero-E6 cells, 400 PFU/well, viral titer from plaque assay at 24 h post-infection.

As to Heparin sodium salt, the binding affinity entry at SARS-CoV-2 spike protein is given as “high-picomolar affinity”. In data set [1], the probability of survival result is given as “increased the probability of survival” and the “risk of significant bleeding” value was 10-15%. For the same substance, in data set [2], the “IC50, SARS-CoV-2 infection” value amounted to 0.05 µg/mL.

In the case of low-molecular-weight heparin, in data set [1], the “serum IL-6 levels” value is “lower serum IL-6 levels”.

Values taken from patent US20220401468A1 (priority 2021, published 2022).
